According to patent US7361668B2 (priority 2001, dated 2008):

Tests used:
[1] = biological target: T1, human recombinant m3 receptor (Homo sapiens, UniProt P20309); format: binding
T1 construct: expressed in transfected cells; host or cells: CHO cells (membrane preparation)

[2] = system: muscarinic; conditions: cited from earlier work

T1 sequence (P20309 whole entry): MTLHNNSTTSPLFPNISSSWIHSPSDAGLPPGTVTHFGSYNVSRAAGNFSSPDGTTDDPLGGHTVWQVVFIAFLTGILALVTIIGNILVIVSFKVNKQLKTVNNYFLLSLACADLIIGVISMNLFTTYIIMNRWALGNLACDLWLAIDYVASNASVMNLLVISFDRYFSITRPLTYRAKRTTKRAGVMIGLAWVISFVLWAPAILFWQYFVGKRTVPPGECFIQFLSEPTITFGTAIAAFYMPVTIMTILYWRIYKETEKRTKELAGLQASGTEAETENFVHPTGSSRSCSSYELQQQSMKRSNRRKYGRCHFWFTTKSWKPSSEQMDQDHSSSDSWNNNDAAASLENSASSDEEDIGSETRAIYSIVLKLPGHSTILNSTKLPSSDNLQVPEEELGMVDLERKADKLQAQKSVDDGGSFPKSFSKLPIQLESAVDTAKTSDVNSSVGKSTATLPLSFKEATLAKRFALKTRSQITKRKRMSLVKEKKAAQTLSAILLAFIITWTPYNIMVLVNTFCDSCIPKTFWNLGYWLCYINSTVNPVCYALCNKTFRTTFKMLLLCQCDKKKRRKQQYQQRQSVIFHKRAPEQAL

SMILES | affinity (in words) [1] | muscarinic anticholinergic activity [2]
COC1(C#CC(C#N)(c2ccccc2)c2ccccc2)CN2CCC1CC2 (racemic) [Compound 64, 4-(3-methoxy-1-azabicyclo[2.2.2]oct-3-yl)-2,2-diphenyl-3-butynenitrile] | High affinities | 
OC(C#CC1CN2CCC1CC2)(c1ccccc1)c1ccccc1 (stereo not drawn) [Alpha-(1-azabicyclo[2.2.2]oct-3-ylethynyl)-alpha-phenyl benzenemethanol] |  | marked muscarinic anticholinergic activity
CO[C@]1(C#CC(O)(c2ccccc2)c2cccc(C)c2)CN2CCC1CC2 (stereo partly drawn) [Compound 72, 3-[(3R)-3-methoxy-1-azabicyclo[2.2.2]oct-3-yl]-1-(3-methylphenyl)-1-phenylprop-2-yn-1-ol] | High affinities | 
CO[C@]1(C#CC(O)(c2ccccc2)c2ccc3c(c2)CCC3)CN2CCC1CC2 (stereo partly drawn) [Compound 80, 1-(2,3-dihydro-1H-inden-5-yl)-3-[(3R)-3-methoxy-1-azabicyclo[2.2.2]oct-3-yl]-1-phenyl-2-propyn-1-ol] | High affinities | 
CO[C@]1(C#CC(O)(c2ccccc2)C2CCCCCCC2)CN2CCC1CC2 (stereo partly drawn) [Compound 89, 1-cyclooctyl-3-[(3R)-3-methoxy-1-azabicyclo[2.2.2]oct-3-yl]-1-phenyl-2-propyn-1-ol] | High affinities | 
CO[C@]1(C#CC(O)(c2ccccc2)C2CCCCCCC2)CN2CCC1CC2 (stereo partly drawn) [Compound 90, 1-cyclooctyl-3-[(3R)-3-methoxy-1-azabicyclo[2.2.2]oct-3-yl]-1-phenyl-2-propyn-1-ol] | High affinities | 
CO[C@]1(C#CC(O)(c2ccccc2)C2CCCCCCC2)CN2CCC1CC2 (stereo partly drawn) [Compound 91, 1-cyclooctyl-3-[(3R)-3-methoxy-1-azabicyclo[2.2.2]oct-3-yl]-1-phenyl-2-propyn-1-ol] | High affinities | 
OC(C#CC1(F)CN2CCC1CC2)(c1ccccc1)C1CCCCC1 (stereo not drawn) [Compound 111, 1-cyclohexyl-3-(3-fluoro-1-azabicyclo[2.2.2]oct-3-yl)-1-phenylprop-2-yn-1-ol] | High affinities | 
CO[C@]1(C#CC(F)(c2ccccc2)C2CCCCC2)CN2CCC1CC2 (stereo partly drawn) [Compound 113, (3R)-3-(3-cyclohexyl-3-fluoro-3-phenyl-1-propynyl)-3-methoxy-1-azabicyclo[2.2.2]octane] | High affinities | 
CO[C@]1(C#CC(O)(c2cccs2)C2CCCCC2)CN2CCC1CC2 (stereo partly drawn) [Compound 115, 1-cyclohexyl-3-[(3R)-3-methoxy-1-azabicyclo[2.2.2]oct-3-yl]-1-(2-thienyl)-2-propyn-1-ol] | High affinities | 
CO[C@]1(C#CC(O)(c2ccccc2)C2CCCCCC2)CN2CCC1CC2 (stereo partly drawn) [Compound 116, 1-cycloheptyl-3-[(3R)-3-methoxy-1-azabicyclo[2.2.2]oct-3-yl]-1-phenyl-2-propyn-1-ol] | High affinities | 
CO[C@]1(C#C[C@](O)(c2ccccc2)C2CCCCCC2)CN2CCC1CC2 [Compound 117, (1R)-1-cycloheptyl-3-[(3R)-3-methoxy-1-azabicyclo[2.2.2]oct-3-yl]-1-phenyl-2-propyn-1-ol] | High affinities | 
CO[C@]1(C#C[C@@](O)(c2ccccc2)C2CCCCCC2)CN2CCC1CC2 [Compound 118, (1S)-1-cycloheptyl-3-[(3R)-3-methoxy-1-azabicyclo[2.2.2]oct-3-yl]-1-phenyl-2-propyn-1-ol] | High affinities | 
CO[C@]1(C#C[C@](O)(c2ccccc2)C2CCCCCC2)C[N+]2(C)CCC1CC2.[I-] [Compound 119, (3R)-3-[(3R)-3-cycloheptyl-3-hydroxy-3-phenyl-1-propynyl]-3-methoxy-1-methyl-1-azoniabicyclo[2.2.2]octane iodide] | High affinities | 
CO[C@]1(C#CC(O)(c2cccnc2)C2CCCCCC2)CN2CCC1CC2 (stereo partly drawn) [Compound 122, 1-cycloheptyl-3-[(3R)-3-methoxy-1-azabicyclo[2.2.2]oct-3-yl]-1-(3-pyridinyl)-2-propyn-1-ol] | High affinities | 
CO[C@]1(C#CC(O)(c2cccs2)C2CCCCCC2)CN2CCC1CC2 (stereo partly drawn) [Compound 123, 1-cycloheptyl-3-[(3R)-3-methoxy-1-azabicyclo[2.2.2]oct-3-yl]-1-(2-thienyl)-2-propyn-1-ol] | High affinities | 
CO[C@]1(C#CC(O)(c2cccnc2F)C2CCCCCC2)CN2CCC1CC2 (stereo partly drawn) [Compound 124, 1-cycloheptyl-1-(2-fluoro-3-pyridinyl)-3-[(3R)-3-methoxy-1-azabicyclo[2.2.2]oct-3-yl]-2-propyn-1-ol] | High affinities | 

SMILES | affinity (in words) [1] | muscarinic anticholinergic activity [2]
CO[C@]1(C#CC(O)(c2ccccc2)C2CCC=CCC2)CN2CCC1CC2 (stereo partly drawn) [Compound 126, 1-(4-cyclohepten-1-yl)-3-[(3R)-3-methoxy-1-azabicyclo[2.2.2]oct-3-yl]-1-phenyl-2-propyn-1-ol] | High affinities | 
CO[C@]1(C#CC(O)(c2ccc(F)cc2)c2ccc(F)nc2)CN2CCC1CC2 (stereo partly drawn) [Compound 139, 1-(4-fluorophenyl)-1-(6-fluoro-3-pyridinyl)-3-[(3R)-3-methoxy-1-azabicyclo[2.2.2]oct-3-yl]-2-propyn-1-ol] | High affinities | 
CO[C@]1(C#CC(O)(c2ccc(F)cc2)c2cccnc2F)CN2CCC1CC2 (stereo partly drawn) [Compound 141, 1-(4-fluorophenyl)-1-(2-fluoro-3-pyridinyl)-3-[(3R)-3-methoxy-1-azabicyclo[2.2.2]oct-3-yl]-2-propyn-1-ol] | High affinities | 
CO[C@]1(C#CC(O)(c2cccs2)c2cccs2)C[N+]2(C)CCC1CC2.[I-] [Compound 155, (3R)-3-[3-hydroxy-3,3-di(2-thienyl)-1-propynyl]-3-methoxy-1-methyl-1-azoniabicyclo[2.2.2]octane iodide] | High affinities | 
CO[C@]1(C#CC(O)(c2ccccc2)C23CC4CC(CC(C4)C2)C3)CN2CCC1CC2 (stereo partly drawn) [Compound 162, 1-(1-adamantyl)-3-[(3R)-3-methoxy-1-azabicyclo[2.2.2]oct-3-yl]-1-phenyl-2-propyn-1-ol] | High affinities | 
COC1(C#CC(O)(c2ccccc2)C2CC3C=CC2C3)CN2CCC1CC2 (stereo not drawn) [Compound 166, 1-bicyclo[2.2.1]hept-5-en-2-yl-3-(3-methoxy-1-azabicyclo[2.2.2]oct-3-yl)-1-phenyl-2-propyn-1-ol] | High affinities | 
CCC(CC)C(O)(C#C[C@@]1(OC)CN2CCC1CC2)c1ccccc1 (stereo partly drawn) [Compound 168, 4-ethyl-1-[(3R)-3-methoxy-1-azabicyclo[2.2.2]oct-3-yl]-3-phenyl-1-hexyn-3-ol] | High affinities | 
C=CCCC(O)(C#C[C@@]1(OC)CN2CCC1CC2)c1ccccc1 (stereo partly drawn) [Compound 169, 1-[(3R)-3-methoxy-1-azabicyclo[2.2.2]oct-3-yl]-3-phenyl-6-hepten-1-yn-3-ol] | High affinities | 
CO[C@]1(C#CC(O)(c2ccccc2)C2CSCCSC2)CN2CCC1CC2 (stereo partly drawn) [Compound 172, 1-(1,4-dithiepan-6-yl)-3-[(3R)-3-methoxy-1-azabicyclo[2.2.2]oct-3-yl]-1-phenyl-2-propyn-1-ol] | High affinities | 
CO[C@]1(C#CC(O)(c2ccccc2)C2CCSCC2)CN2CCC1CC2 (stereo partly drawn) [Compound 173, 3-[(3R)-3-methoxy-1-azabicyclo[2.2.2]oct-3-yl]-1-phenyl-1-tetrahydro-2H-thiopyran-4-yl-2-propyn-1-ol] | High affinities | 
CO[C@]1(C#CC(O)(c2ccccc2)C2CCSCC2)CN2CCC1CC2 (stereo partly drawn) [Compound 174, 3-[(3R)-3-methoxy-1-azabicyclo[2.2.2]oct-3-yl]-1-phenyl-1-tetrahydro-2H-thiopyran-4-yl-2-propyn-1-ol] | High affinities | 
CO[C@]1(C#CC(O)(c2ccccc2)C2CC3CCC(C3)C2)CN2CCC1CC2 (stereo partly drawn) [Compound 176, 1-bicyclo[3.2.1]oct-3-yl-3-[(3R)-3-methoxy-1-azabicyclo[2.2.2]oct-3-yl]-1-phenyl-2-propyn-1-ol] | High affinities | 
CO[C@]1(C#CC(O)(c2ccccc2)C2CC3CCC(C2)S3)CN2CCC1CC2 (stereo partly drawn) [Compound 177, 3-[(3R)-3-methoxy-1-azabicyclo[2.2.2]oct-3-yl]-1-phenyl-1-(8-thiabicyclo[3.2.1]oct-3-yl)-2-propyn-1-ol] | High affinities | 
CO[C@]1(C#CC(O)(CC(C)(C)C)c2cccs2)CN2CCC1CC2 (stereo partly drawn) [Compound 185, 1-[(3R)-3-methoxy-1-azabicyclo[2.2.2]oct-3-yl]-5,5-dimethyl-3-(2-thienyl)-1-hexyn-3-ol] | High affinities | 
CO[C@]1(C#CC(O)(CC2CCCC2)c2cccs2)CN2CCC1CC2 (stereo partly drawn) [Compound 188, 1-cyclopentyl-4-[(3R)-3-methoxy-1-azabicyclo[2.2.2]oct-3-yl]-2-(2-thienyl)-3-butyn-2-ol] | High affinities | 
CO[C@]1(C#CC(O)(c2ccccn2)c2ccc(Cl)s2)CN2CCC1CC2 (stereo partly drawn) [Compound 190, 1-(5-chloro-2-thienyl)-3-[(3R)-3-methoxy-1-azabicyclo[2.2.2]oct-3-yl]-1-(2-pyridinyl)-2-propyn-1-ol] | High affinities | 
